Data set [1] is described as follows: Solubility in gastric juice or intestinal juice model fluid (precipitation method using DMSO). The class given is physicochemical. The settings on record: room temperature. The essentials:
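Compound in DMSO added to JP disintegration test fluid 1 (pH 1.2) or fluid 2 (pH 6.8) and shaken 24 h at room temperature. After filtration, dissolved concentration (μg/mL) determined by UV absorbance against compound calibration curves.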

The test system of data set [2] is lipoprotein lipase (LPL) gene. The experiment in a line: LPL mRNA elevating action (RT-PCR quantification of LPL mRNA in C2Cl2 cells). The class given is cell-based, mouse. The conditions noted are these: compound 10 μM, ratio relative to the amount of LPL mRNA in cells with DMSO only; for fold induction at 10 µM: Mus musculus, 24 h, read-out: Rate of increase in LPL mRNA. On the procedure: LPL mRNA Elevating Action
C2Cl2 cells (cell strain derived from striated muscle of mouse) were seeded in 96-well plates using a DMEM medium (Gibco) (containing 2 mM L-glutamine and 10% fetal bovine serum). After the cells were grown, the medium was removed. Subsequently, media obtained by adding dimethyl sulfoxide (DMSO) solutions of the compounds to the same medium as described above to a concentration of 10 μM were individually added to the cells and allowed to stand for 24 hours. The compound-containing media were removed, and the plates were washed with phosphate buffered saline. Thereafter, the remaining cells were lysed and subjected to a reverse transcription polymerase chain reaction (RT-PCR reaction) to obtain cDNA. Primers specific to lipoprotein lipase (LPL) gene, a necessary enzyme, etc., were added to the obtained cDNA. The mixture was set in 7500 Fast Real Time PCR System produced by Applied Biosystem to perform a PCR reaction (20 cycles) and the amount of LPL mRNA amplified was quantified. The LPL mRNA elevating action of each compound in the test cells was indicated as the ratio relative to the amount of LPL mRNA in cells allowed to stand in a medium to which only DMSO was added, with the amount being defined as 1.
As Comparative Example 1, a test was performed in the same manner as above, using a compound disclosed as the compound of Example 57 in WO2010/090200.

[3] abbreviates: pH 1.2, simulated gastric fluid, kinetic from dmso stock, 1st fluid for Disintegration Test of Japanese Pharmacopoeia (pH: 1.2), read-out: Solubility (μg/mL) 1st fluid.
The mark [4] stands for this setting: pH 6.8, kinetic from dmso stock, 2nd fluid for Disintegration Test of Japanese Pharmacopoeia (pH: 6.8), read-out: Solubility (μg/mL) 2nd fluid.

In brackets after ≈: the same amount, converted by molar mass. Read-outs that look alike come from different tables or passages of the source.

For the compound `COc1cc(OCc2ncc(C(F)(F)F)cc2F)ccc1-c1cnc(C2CCC2)[nH]1` [Example 371], the solubility at 24 h is 84 µg/mL (≈ 199 µM) in data set [1] (setting [3]) and 42.9 µg/mL (≈ 102 µM) in data set [1] (setting [4]). Besides, the fold induction at 10 µM in data set [2] stood at 3.57.
With `COc1cc(OCc2ncc(Br)cc2F)ccc1-c1cnc(-c2ccc(F)nc2)[nH]1` [Example 111, 5-bromo-3-fluoro-2-[[4-(2-(6-fluoropyridin-3-yl)-1H-imidazol-5-yl)-3-methoxyphenoxy]methyl]pyridine], the solubility at 24 h in data set [1] (setting [3]) is 9.4 µg/mL (≈ 19.9 µM); in data set [1] (setting [4]), 1.2 µg/mL (≈ 2.54 µM). The fold induction at 10 µM in data set [2] is 2.46.
Consider `COc1cc(OC(C)c2ncc(Br)cc2F)ccc1-c1cnc(-c2ccc(F)nc2)[nH]1` (stereo not drawn) [Example 128], for which the solubility at 24 h in data set [1] (setting [3]) was 94.9 µg/mL (≈ 195 µM); in data set [1] (setting [4]) it was 4 µg/mL (≈ 8.21 µM). Besides, the fold induction at 10 µM in data set [2] amounted to 2.28.
Take `COc1cc(-c2[nH]c(C3CCCC(F)(F)C3)nc2Br)ccc1OCc1ccc(C(F)(F)F)cn1` (stereo not drawn) [Example 171]: the “Solubility (μg/mL) 1st fluid” value in data set [1] (1st fluid for Disintegration Test of Japanese Pharmacopoeia (pH: 1.2), 24 hours) was more than 109 µg/mL. Further, the “Solubility (μg/mL) 2nd fluid” value in data set [1] (2nd fluid for Disintegration Test of Japanese Pharmacopoeia (pH: 6.8), 24 hours) is less than 1.9 µg/mL. In addition, in data set [2] (24 hours), the “Rate of increase in LPL mRNA” value was 2.89.
For the compound `COc1cc(-c2cnc(C3CCC(F)(F)C3)[nH]2)ccc1OCc1ncc(C(F)(F)F)cc1F` (stereo not drawn) [Example 341], the solubility at 24 h in data set [1] (setting [3]) is 91.7 µg/mL (≈ 195 µM); in data set [1] (setting [4]), 15.8 µg/mL (≈ 33.5 µM). The fold induction at 10 µM in data set [2] worked out at 1.75.
On to `CCc1nc(-c2ccc(F)nc2)[nH]c1-c1ccc(OCc2ncc(C(F)(F)F)cc2F)cc1OC` [Example 362], for which the figures for the solubility at 24 h in data set [1] (setting [3]) and in data set [1] (setting [4]) were 95.5 µg/mL (≈ 195 µM) and 5 µg/mL (≈ 10.2 µM), respectively. Also, the fold induction at 10 µM in data set [2] worked out at 2.89.
For the compound `COc1cc(OCc2ccc(C(F)(F)F)cn2)ccc1-c1c(Cl)nc(-c2ccc(F)nc2)n1CC1CC1` [Example 296], the solubility at 24 h in data set [1] (setting [3]) was 73 µg/mL (≈ 137 µM); in data set [1] (setting [4]), 2.3 µg/mL (≈ 4.32 µM). Moreover, the fold induction at 10 µM in data set [2] was 3.48.
Regarding `COc1cc(-c2cnc(-c3ccc(C)nc3)[nH]2)ccc1OCc1ncc(C(F)(F)F)cc1F` [Example 403], the fold induction at 10 µM in data set [2] was 2.09.
`COc1cc(-c2cnc(C3CC3)[nH]2)ccc1OCc1ncc(C(F)(F)F)cc1F` [Example 376]: the results for the solubility at 24 h in data set [1] (setting [3]) and in data set [1] (setting [4]) were 75.2 µg/mL (≈ 185 µM) and 79.4 µg/mL (≈ 195 µM), respectively. Moreover, in data set [2], the fold induction at 10 µM turned out to be 1.18.
`COc1cc(OCc2ncc(C(F)(F)F)cc2F)ccc1-c1[nH]c(-c2ccc(F)nc2)nc1CO` [Example 413, [5-(4-((3-fluoro-5-(trifluoromethyl)pyridin-2-yl)methoxy)-2-methoxyphenyl)-2-(6-fluoropyridin-3-yl)-1H-imidazol-4-yl]methanol]: the solubility at 24 h was 37 µg/mL (≈ 75.1 µM) in data set [1] (setting [3]) and 2.9 µg/mL (≈ 5.89 µM) in data set [1] (setting [4]). In data set [2], the fold induction at 10 µM is 2.06.
For `COc1cc(-c2c[nH]c(C3CCCCCC3)n2)ccc1OCc1ccc(C(F)(F)F)cn1` [Example 72], the solubility at 24 h was more than 116 µg/mL in data set [1] (setting [3]) and 1.8 µg/mL (≈ 4.04 µM) in data set [1] (setting [4]). In addition, in data set [2], the fold induction at 10 µM was 2.75.
For the compound `COc1cc(OCc2ncc(C(F)(F)F)cc2F)ccc1-c1[nH]c(-c2ccc(C)nc2)nc1Cl` [Example 404], in data set [2], the fold induction at 10 µM stood at 3.26.
Turning to `COc1cc(-c2[nH]c(-c3ccc(C)nc3)nc2Cl)ccc1OCc1ncc(C(F)(F)F)cc1F` [Example 405], in data set [2], the fold induction at 10 µM stood at 2.78.
Still for that read-out and setting: as for `COc1cc(OCc2ncc(C(F)(F)F)cc2F)ccc1-c1[nH]c(C2CC(F)(F)C2)nc1F` [Example 401], the figure is 2.9.
With `COc1cc(OCc2ncc(Cl)cc2C(F)(F)F)ccc1-c1cnc(-c2ccc(F)nc2)[nH]1` [Example 138], in data set [2], the fold induction at 10 µM amounted to 2.97.
As for `COc1cc(OCc2ncc(C(F)(F)F)cc2F)ccc1-c1cnc(-c2ccc(C)nc2)[nH]1` [Example 402], in data set [2], the fold induction at 10 µM was found to be 2.37.
Turning to `COc1cc(OCc2ccc(Br)cc2F)ccc1-c1c[nH]c(-c2ccccn2)n1` [Example 91], the melting point (in general, the temperature, or range, at which the solid turns liquid) fell in the range of 143 to 146 °C. The solubility at 24 h in data set [1] (setting [3]) was 42.8 µg/mL (≈ 94.2 µM). Moreover, the solubility at 24 h in data set [1] (setting [4]) was found to be 0.6 µg/mL (≈ 1.32 µM).
As for `COc1cc(OCc2ncc(C(F)(F)F)cc2F)ccc1-c1[nH]c(-c2ccc(Cl)nc2)nc1Cl` [Example 245], the melting point lay within 116 to 131 °C. The solubility at 24 h in data set [1] (setting [3]) was 90.2 µg/mL (≈ 176 µM). Further, the solubility at 24 h in data set [1] (setting [4]) is 11.7 µg/mL (≈ 22.8 µM).
The compound `COc1cc(-c2nc(-c3ccc(Cl)cn3)[nH]c2C)ccc1OCc1ccc(C(F)(F)F)cn1` [Example 31] displayed a melting point of 168 to 171 °C. In addition, the solubility at 24 h in data set [1] (setting [3]) is 7.7 µg/mL (≈ 16.2 µM). The solubility at 24 h in data set [1] (setting [4]) stood at 1.6 µg/mL (≈ 3.37 µM).
For `COc1cc(OCc2ccc(C(F)(F)F)nc2)ccc1-c1nc(-c2ccc(F)cn2)[nH]c1Cl` [Example 226], the melting point was 186 to 193 °C (dec.). In data set [1] (setting [3]), the solubility at 24 h was less than 8.5 µg/mL. Moreover, the solubility at 24 h in data set [1] (setting [4]) turned out to be 3.4 µg/mL (≈ 7.1 µM).
For the compound `COc1cc(OCc2ccc(C(F)(F)F)cn2)ccc1-c1cn(C)c(-c2ccc(Cl)nc2)n1` [Example 168], the melting point was in the range of 186 to 190 °C. The solubility at 24 h in data set [1] (setting [3]) was more than 95 µg/mL. Also, the solubility at 24 h in data set [1] (setting [4]) is less than 0.3 µg/mL.
Compound `COc1cc(OCc2ncccc2C#N)ccc1-c1[nH]c(C2CCC(F)(F)CC2)nc1Br` [Example 184] had a melting point of 160 to 161 °C. Besides, the solubility at 24 h in data set [1] (setting [3]) is 96.3 µg/mL (≈ 191 µM). For the same compound, the solubility at 24 h in data set [1] (setting [4]) came out at 5.8 µg/mL (≈ 11.5 µM).
As to `COc1cc(OCc2ccc(C(F)(F)F)nc2)ccc1-c1nc(-c2ccc(Cl)nc2)n(C)c1Br` [Example 298], the melting point lay in the range of 177 to 182 °C. For the same compound, the solubility at 24 h in data set [1] (setting [3]) is 108 µg/mL (≈ 196 µM). Further, in data set [1] (setting [4]), the solubility at 24 h came out at 1.6 µg/mL (≈ 2.89 µM).
`COc1cc(OCc2ccc(C(F)(F)F)nc2)ccc1-c1c[nH]c(C2CCCCC2)n1` [Example 53] registered a melting point of 62 to 73 °C. Moreover, in data set [1] (setting [3]), the solubility at 24 h is more than 86 µg/mL. The solubility at 24 h in data set [1] (setting [4]) is 4.6 µg/mL (≈ 10.7 µM).
Regarding `COc1cc(OCc2ncc(F)cc2F)ccc1-c1[nH]c(-c2ccc(Cl)nc2)nc1Br` [Example 246], the melting point is 190 to 193 °C. For the same compound, the solubility at 24 h in data set [1] (setting [3]) was 15.6 µg/mL (≈ 30.7 µM). The solubility at 24 h in data set [1] (setting [4]) turned out to be 5 µg/mL (≈ 9.85 µM).
Consider `COc1cc(-c2c[nH]c(C3CC3)n2)ccc1OCc1ccc(C(F)(F)F)cn1` [Example 82], for which the melting point lay within 153 to 155 °C. Moreover, the solubility at 24 h in data set [1] (setting [3]) was more than 78 µg/mL. For the same compound, in data set [1] (setting [4]), the solubility at 24 h was 41.1 µg/mL (≈ 106 µM).
On the same counts, the results for `COCn1cc(-c2ccc(OCc3ccc(C(F)(F)F)cn3)cc2OC)nc1-c1ccc(F)nc1` [Example 166] are 172 to 174 °C, more than 98 µg/mL and 0.6 µg/mL (≈ 1.23 µM).
`COc1cc(OCc2ccc(C(F)(F)F)nc2)ccc1-c1c(Br)nc(-c2ccc(F)nc2)n1C` [Example 305] came in with a melting point of 134 to 136 °C. In data set [1] (setting [3]), the solubility at 24 h was 24.7 µg/mL (≈ 46 µM). Moreover, the solubility at 24 h in data set [1] (setting [4]) came to 0.4 µg/mL (≈ 0.744 µM).
`COc1cc(OCc2ccc(C(F)(F)F)cn2)ccc1-c1cnc(-c2ccc(C#N)nc2)[nH]1` [Example 150, 5-[5-[2-methoxy-4-((5-(trifluoromethyl)pyridin-2-yl)methoxy)phenyl]-1H-imidazol-2-yl]picolinonitrile]: the melting point is 241 to 244 °C (dec.). The solubility at 24 h in data set [1] (setting [3]) was 2.4 µg/mL (≈ 5.32 µM). The solubility at 24 h in data set [1] (setting [4]) worked out at 0.3 µg/mL (≈ 0.665 µM).
For `COc1cc(-c2c[nH]c(C3CCC(F)(F)CC3)n2)cc(OC)c1OCc1ccc(C(F)(F)F)cn1` [Example 63] the same measures were 155 to 168 °C (dec.), 82.2 µg/mL (≈ 165 µM) and 12.5 µg/mL (≈ 25.1 µM).

Source of the values: US10570117B2, “Phenylimidazole compound” (Otsuka Pharmaceutical Factory, Inc., priority 2015, dated 2020).
